These results are taken from US10179774B2, “Synthesis of chirally purified substituted benzothiazole diamines” (priority 2007, dated 2019).

SMILES strings stand for the structures. Bounds are passed on as bounds.

Data set [1] deals with rodents.
Data set [2] concerns rodents. Particulars: single oral dose, 'and above'; cited from earlier work.
The subject of the next data set is dogs. Particulars: single oral dose, 'and above'; cited from earlier work.
Another data set deals with monkeys. The settings on record: single oral dose; cited from earlier work.
The test system of a further data set is humans. The settings on record: cited from earlier work.

For `CCCNC1CCc2nc(N)sc2C1` (stereo not shown) [pramipexole], the “equivalent human dose of the rodent lethal dose” value with rodents [1] (human equivalent of 70-105 mg/kg in rodents) fell in the range of 7 to 12 mg/kg. For the same molecule, the “equivalent human dose of the rodent lethal dose for a 70 kg individual” value in the data set with rodents [1] (rodents, in vivo) lay in the range of 500 to 850 mg. In addition, the “doses at which death occurred” value in the data set with rodents [2] was 70 to 105 mg/kg. Moreover, in the data set with dogs, the “dose at which vomiting occurred” value is given as at least 0.0007 mg/kg. Besides, the “dose at which major excitation was displayed” value in the data set with monkeys was 3.5 mg/kg. The “initial single dose not tolerated” value in the data set on humans (human subjects, initial single dose) is listed as “greater than 0.20 mg”. The “dose shown to cause somnolence” value in the data set on humans (humans, 'as low as') was 1.5 mg.
